US9512425B2, “Inhibiting migration of cancer cells” (Cornell University, priority 2012, dated 2016)
“Also recorded” adds a separate entry of the source.

Key:
cortical actin = assay: Immunostaining for vinculin and F-actin (phalloidin); format: cell-based, human; settings: MDA-miR-708 cells
Description: For immunofluorescence staining, cells were fixed overnight in paraformaldehyde before incubation with primary antibodies; mouse-monoclonal VINCULIN (Cat#V9131, Sigma-Aldrich, 1:400) and rabbit-polyclonal phosphorylated FAK (pS910, Cat #44596G, Invitrogen, 1:1000). Alexa Flour 568 or Alexa Fluor 647 anti-mouse IgG, and Alexa Fluor 647 anti-rabbit IgG (Invitrogen), were used for visualization. Following incubation with secondary antibodies the tissue sections were treated with Rhodamine Phalloidin (Cat# R415, Invitrogen). Fluorescent images were obtained using a computerized Zeiss fluorescent microscope (Axiovert 200M), fitted with an apotome and an HRM camera. Images were analyzed using Axiovision 4.6 software (Carl Zeiss Inc.).

NNAT protein = assay: Western blot of NNAT; format: cell-based, human
Description: (§1) Cells were homogenized in 1×RIPA lysis buffer (Millipore) containing protease inhibitors (Roche Applied Science) and 1× phosphatase inhibitor (Thermo Scientific). Samples were boiled in 1× NuPAGE LDS sampling buffer (Invitrogen), and loaded onto 4-20% gradient Tris-HCl gels (BioRad). Western blotting was performed using antibodies specific for NNAT (Cat#AB27266, Abcam), EPDR1 (Cat# SC81820, Santa Cruz), SSRP1 (Cat#SC56782, Santa Cruz), HOXB3 (Cat# SC17161, Santa Cruz), HNRNPK (Cat# SC28380, Santa Cruz), CNTFR, Phospho-p44/42 MAPK (Erk1/2, Cat #4370, Cell Signaling), p44/42 MAPK (Erk1/2, Cat #4695, Cell Signaling), VINCULIN (Cat#V9131, Sigma-Aldrich), and β-ACTIN (Sigma-Aldrich).

MDA-LM2 (LM2) = assay: Orthotopic MDA-LM2 tumor / pulmonary metastasis model; format: in vivo, mice
Description: For orthotopic injection, 1×10^6 viable MDA-MB-231, MDA-Cont, or MDA-miR-708 cells were injected into CB-17 SCID mice fat pads in a volume of 0.1 ml. Tumor growth and pulmonary metastases (following resection of primary tumor) were monitored by live animal bioluminescent imaging (Xenogen IVIS system) once per week.
Mice inoculated with firefly luciferase were anaesthetized and injected retro-orbitally with 75 mg/kg of D-luciferin (30 mg/mL in PBS). Images were taken with mice in a supine position using the Xenogen IVIS system coupled to Living Image acquisition and analysis software (Xenogen). For bioluminescence (BLI) plots, photon flux was calculated for each mouse by using a rectangular region of interest encompassing the thorax of the mouse.
Paraffin embedded sections (5 μm) were deparaffinized following standard protocols. […] Images were obtained with an Axiovert 40 CFL microscope coupled with Axioversion 4.8.2 software (Carl Zeiss). For nodule counting, lungs were perfused, isolated and OCT embedded and sectioned for immunohistochemical analysis. Cryosections (8 μm) were mounted on glass slides and stained with hematoxylin and eosin (H&E).
To measure number of CTC in blood, 100 μl of peripheral blood was collected from mice bearing orthotopic […] expressing MDA and MDA-mir-708 breast tumors. Total RNA was isolated and subjected to Taqman Q-PCR for GFP transgene. To convert quantitative-PCR data into number of CTCs, a standard curve was generated by serially diluting GFP+MDA tumor spiked into […] of normal wild type mouse blood.

p-ERK (T202) = assay: Western blot of p-ERK after ATP stimulation; format: cell-based, human; settings: MDA-miR-708 vs MDA cells after ATP
Description: as §1

MDA-MB-231 (MDA) = assay: Wound healing / transwell migration of MDA cells stably expressing miR-708; format: cell-based, human; settings: MDA cells stably expressing miR-708 (lentiviral) vs controls
Text: To express miRNA-708 in cells, about 500 bp of pri-miRNA containing the mature miR-708 sequence 5′-[…]-3′ (SEQ ID NO: 2) was amplified and cloned into the pZEO lentiviral construct in fusion with a GFP reporter as described (Ryu et al., 2011). miRNA sponge was generated according to (Ebert et al., 2007). Briefly, the sponge contains twelve miR-708 binding sites, 5′-[…]-3′ (SEQ ID NO: 3) which is fused with GFP and driven by an EF1α promoter. In particular, miRNA-708 was designed and cloned into the Xho I/EcoR I site of the lentiviral vector. To express miRNA-708 inducibly in cells, a doxycycline inducible construct was generated. […]
Cells were plated in triplicate into 6-well plates (5×10^5 cell/well) and cultured in DMEM containing 10% FBS. […] Cell migration was photographed and measured under phase-contrast microscopy. To measure cell migration after depletion of intracellular calcium, a scratch was made and the wound healing was monitored for 48 hr in the presence of 20 μM of BAPTA-AM (Invitrogen). The percentage of wound healed area was measured as a ratio of occupied area to the total area using Image J program (NIH).
For transwell assays, 10,000 cells were plated in triplicate on 8 micron inserts in 24 well plates containing DMEM. […] After staining, images were obtained using a computerized Zeiss microscope (Axiovert 200M) and analyzed using Axiovision 4.6 software (Carl Zeiss Inc.).

“miR-708: microRNA, mature sequence 5'-AAGGAGCUUACAAUCUAGCUGGG-3' (SEQ ID NO: 2); expressed from lentiviral vector or used as synthetic precursor” was tested, and the cortical actin phenotype (cortical actin) was “thick bands of cortical actin rings”, the “expression of NNAT protein” value (NNAT protein; MDA-708 vs MDA control cells, constitutive expression) was “significantly decreased” and the Nnat levels (NNAT protein; doxycycline-mediated conditional expression of miR-708) was “significant reduction”. The “NNAT expression from Nnat cDNA” value (NNAT protein; mutant 3'-UTR (Nnat-mut), synthetic miR-708) was “abolished miR-708-mediated suppression”, the “NNAT expression from Nnat cDNA” value (NNAT protein; wild type UTR, synthetic miR-708 vs scrambled) was “suppressed expression” and the primary tumor growth (MDA-LM2 (LM2); LM2 cells over-expressing miR-708, day 60) was “remained unperturbed”. For the same substance, the “lung metastases (photon flux)” value (MDA-LM2 (LM2); LM2 cells over-expressing miR-708, day 67) was “significantly lower photon flux; also recorded: pronounced reduction”, the “number of lung metastatic nodules” value (MDA-LM2 (LM2); MDA-LM2-miR-708 vs controls, H&E sections) was “reduced numbers” and the “number of circulating tumor cells (CTCs)” value (MDA-LM2 (LM2); peripheral blood of MDA-LM2-miR-708 tumor bearing mice vs controls) was “reduced number”. The “primary tumor size measurements” value (MDA-LM2 (LM2); weight over time, FIG. 7H) was “unaffected”, the “activated Erk (p-Erk) levels” value (p-ERK (T202)) was “reduced levels” and the migration rates (MDA-MB-231 (MDA)) was “suppressed migration rates”.
